In patent US5422350A, “Nitrogen substituted acridine and cytochrome P450 inhibitors and methods of use” (priority 1992, dated 1995):
Like-named read-outs stand apart in the source and are kept apart here.

How the values were obtained:
P4501A2 = conditions: co-incubation with tacrine
Procedure: (§1) Total reaction volume was 3 mL. Reactions were stopped by freezing in liquid nitrogen or dry-ice acetone. […] D. J. Waxman and L. Axaroff, "Phenobarbital induction of cytochrome P-450 Gene Expression", BIOCHEM J, Vol. 281, pp. 577-592 (1992); P. Soucek and I. Gut, supra.

[1] = Procedure: as §1
rat hepatocytes = assay: Irreversible binding of tacrine-derived radioactivity to rat hepatocytes with chloroquine; assay type: in vitro ADME; conditions: Tacrine alone
From the text: D. J. Back, H. S. Purba, C. […] PHARMACOL., Vol. 32, pp. 257-264 (1983). Ethoxyresorufin O-deethylation is selectively catalyzed by P450 1A2. C. Gleizes, C. […] PHARMACOL. VOL. 41, pp. 1813-1820 (1991).

[2] = In vitro metabolism of 14C-tacrine in rat liver microsomes; conditions: for TAC: w/out NADPH
Procedure: as §1

[3] = Irreversible protein binding of 14C-tacrine-derived radioactivity, human liver microsomes
Procedure: as §1
(§2) C. N. Martin and R. C. Garner: "Covalent Binding In Vitro and In Vivo" in BIOCHEMICAL TOXICOLOGY: A PRACTICAL APPROACH, Eds. K. Snell and B. Mullock, IRL, Wash. D.C. pp. 109-126 (1987).

P450 2D6 = assay: Tacrine as substrate of P450 2D6: co-incubation with quinidine in human liver microsomes; assay type: in vitro ADME; conditions: for 1-Hydroxytacrine / Tacrine: quinidine -
From the text: U. A. Meyer, J. Gut, T. Kronbach, C. Skoda, U. T. Meier, and T. Catin, "The Molecular Mechanisms of Two Common Polymorphisms of Drug Oxidation-Evidence for Functional Changes in Cytochrome P-450 Isozymes Catalysing Bufuralol and Mephenytoin Oxidation", XENOBIOTICA, Vol 16, pp 449-464 (1986). […] PHARMACOL., Vol 37, pp 155-160 (1989).

[4] = Irreversible protein binding of 14C-tacrine-derived radioactivity, rat liver microsomes; conditions: 60 min
Procedure: as §1, §2

P450 1A2 [5] = biological target: T1, P450 1A2 (Homo sapiens, UniProt P05177); assay: in vitro; conditions: human, microsomes
T1 sequence (P05177 2-516 limits assumed): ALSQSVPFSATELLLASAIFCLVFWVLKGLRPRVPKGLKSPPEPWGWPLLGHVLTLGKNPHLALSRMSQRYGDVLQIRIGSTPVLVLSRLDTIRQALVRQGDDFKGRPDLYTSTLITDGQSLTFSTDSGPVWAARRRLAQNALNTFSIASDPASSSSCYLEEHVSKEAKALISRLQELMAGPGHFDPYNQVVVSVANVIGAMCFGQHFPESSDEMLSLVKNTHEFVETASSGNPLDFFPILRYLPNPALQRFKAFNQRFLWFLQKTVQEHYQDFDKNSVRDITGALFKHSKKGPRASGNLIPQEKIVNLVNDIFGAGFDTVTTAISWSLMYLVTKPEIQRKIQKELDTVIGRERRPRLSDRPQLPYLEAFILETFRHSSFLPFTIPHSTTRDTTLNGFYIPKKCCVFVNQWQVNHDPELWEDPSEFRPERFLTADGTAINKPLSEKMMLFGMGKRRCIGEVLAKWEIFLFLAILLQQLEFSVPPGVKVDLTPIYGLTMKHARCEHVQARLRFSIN
Procedure: (§3) PHARMACOL., Vol. 42, pp. 767-772 (1990) was conducted. […] The effect of various enoxacin concentrations (8, 20, and 50 μM) on the extent of irreversible binding was examined in a separate study.

P450 1A2 [6] = assay: in vitro
Procedure: as §3

[7] = Human Prep (letter not given), w/NADPH, 60 min
[8] = MC induced Rat, w/NADPH, 60 min
[9] = Noninduced Rat, w/NADPH, 60 min
[10] = PB induced Rat, w/NADPH, 60 min
[11] = I induced Rat, with NADPH, N = 3
[12] = MC induced Rat, with NADPH, N = 3
[13] = Noninduced Rat, with NADPH, N = 3
[14] = PB induced Rat, with NADPH, N = 3

## Cl.Nc1c2c(nc3ccccc13)CCCC2.O [Tacrine, 1,2,3,4-tetrahydro-9-acridinamine monohydrate monohydrochloride]
P4501A2
  effect on 1-hydroxytacrine metabolism by P4501A2: inhibited
[1]; [7]
  1-OH: 0.750 nmole equivalents
  4-OH: 0.039 nmole equivalents
  POLAR UNKS: 0.039 nmole equivalents
  UNKS: 0.146 nmole equivalents
[1]; Human Prep (letter not given), w/out NADPH, 60 min
  TAC: 1.34 nmole equivalents
[1]; Human Prep C, w/NADPH, 60 min
  1-OH: 0.599 nmole equivalents
  2-OH: 0.095 nmole equivalents
  POLAR UNKS: 0.035 nmole equivalents
  UNKS: 0.139 nmole equivalents
[1]; Human Prep C, w/out NADPH, 60 min
  TAC: 1.07 nmole equivalents
[1]; Human Prep D, w/NADPH, 60 min
  1-OH: 0.201 nmole equivalents
  TAC: 0.803 nmole equivalents
[1]; Human Prep D, w/out NADPH, 60 min
  TAC: 1.086 nmole equivalents
[1]; human liver preparation D
  extent of metabolism: only partial tacrine turnover
[1]; human liver preparations
  major product detected: 1-hydroxytacrine with minor amounts of the 2- and 4-hydroxytacrine regioisomers
[1]; human liver preparations B and C, within 60 min
  extent of metabolism: completely metabolized
Rat hepatocytes; 5 min, N = 2
  tacrine-equivalents bound per mg hepatic protein: 0.020 nmol
Rat hepatocytes; 15 min
  tacrine-equivalents bound per mg hepatic protein: 0.037 nmol
Rat hepatocytes; 30 min
  tacrine-equivalents bound per mg hepatic protein: 0.061 nmol
Rat hepatocytes; 60 min
  tacrine-equivalents bound per mg hepatic protein: 0.128 nmol
Rat hepatocytes; 90 min
  tacrine-equivalents bound per mg hepatic protein: 0.183 nmol
Rat hepatocytes; 120 min
  tacrine-equivalents bound per mg hepatic protein: 0.294 nmol
Rat hepatocytes; 180 min
  tacrine-equivalents bound per mg hepatic protein: 0.377 nmol
[2]; I induced Rat, w/NADPH, 60 min
  1-OH: 1.57 nmole equivalents
  POLAR UNKS: 0.083 nmole equivalents
[2]; I induced Rat, 60 min
  TAC: 1.14 nmole equivalents
[2]; [8]
  1-OH: 0.790 nmole equivalents
  4-OH: 0.018 nmole equivalents
  POLAR UNKS: 0.009 nmole equivalents
  UNKS: 0.091 nmole equivalents
[2]; MC induced Rat, 60 min
  TAC: 1.16 nmole equivalents
[2]; [9]
  1-OH: 0.994 nmole equivalents
  2-OH: 0.088 nmole equivalents
  POLAR UNKS: 0.022 nmole equivalents
[2]; Noninduced Rat, 60 min
  TAC: 1.22 nmole equivalents
[2]; [10]
  1-OH: 1.15 nmole equivalents
  2-OH: 0.144 nmole equivalents
  POLAR UNKS: 0.026 nmole equivalents
[2]; PB induced Rat, 60 min
  TAC: 1.20 nmole equivalents
[2]; rat vs human preparations
  1-hydroxytacrine produced: more 1-hydroxytacrine produced as compared to human preparations
[3]
  detection of a hydroxylamine metabolite: unsuccessful
  irreversible binding of 14C-tacrine-derived radioactivity to microsomal protein: no detectable
  rate and products of metabolism: rapidly metabolized not only to 1-hydroxytacrine but also to 7-hydroxytacrine
P450 2D6
  catalysis by P450 2D6 of metabolism and irreversible binding: not catalyzed by P450 2D6
P450 2D6; 0 min
  1-Hydroxytacrine: 0 nMoles per 3 mL incubate
  Tacrine: 2.13 nMoles per 3 mL incubate
P450 2D6; 7-hydroxytacrine at incubation times through 40 min
  metabolites observed: mainly 1-hydroxytacrine with 7-hydroxytacrine also being observed
P450 2D6; 5 min
  1-Hydroxytacrine: 0.416 nMoles per 3 mL incubate
  Tacrine: 1.24 nMoles per 3 mL incubate
P450 2D6; 10 min
  1-Hydroxytacrine: 0.716 nMoles per 3 mL incubate
  Tacrine: 0.831 nMoles per 3 mL incubate
P450 2D6; 20 min
  1-Hydroxytacrine: 1.03 nMoles per 3 mL incubate
  Tacrine: 0.302 nMoles per 3 mL incubate
P450 2D6; 40 min
  1-Hydroxytacrine: 1.34 nMoles per 3 mL incubate
  Tacrine: 0 nMoles per 3 mL incubate
P450 2D6; 60 min
  1-Hydroxytacrine: 1.43 nMoles per 3 mL incubate
  Tacrine: 0 nMoles per 3 mL incubate
[4]; [11]
  Percent Bound: 4.62 ± 0.73%
  Tacrine equivalents irreversibly bound to 1 mg microsomal protein: 0.042 ± 0.004 nmol
[4]; I induced Rat, without NADPH
  Tacrine equivalents irreversibly bound to 1 mg microsomal protein: 0.003 nmol
[4]; [12]
  Percent Bound: 14.5 ± 0.37%
  Tacrine equivalents irreversibly bound to 1 mg microsomal protein: 0.139 ± 0.010 nmol
[4]; MC induced Rat, without NADPH
  Tacrine equivalents irreversibly bound to 1 mg microsomal protein: 0.003 nmol
[4]; [13]
  Percent Bound: 5.97 ± 0.68%
  Tacrine equivalents irreversibly bound to 1 mg microsomal protein: 0.041 ± 0.001 nmol
[4]; Noninduced Rat, without NADPH
  Tacrine equivalents irreversibly bound to 1 mg microsomal protein: 0.003 nmol
[4]; [14]
  Percent Bound: 4.49 ± 0.85%
  Tacrine equivalents irreversibly bound to 1 mg microsomal protein: 0.034 ± 0.006 nmol
[4]; PB induced Rat, without NADPH
  Tacrine equivalents irreversibly bound to 1 mg microsomal protein: 0.002 nmol
[4]; Table 3, MC induced Rat, NADPH, N = 3
  Tacrine equivalents irreversibly bound to 1 mg microsomal protein: 0.139 ± 0.010 nmol
P450 1A2 [5]
  Km: < 5 µM
P450 1A2 [6]; Table 6, deletion of NADPH
  irreversible binding of derived radioactivity to microsomal protein: no irreversible
P450 1A2 [6]; Table 6, tacrine 0.3 μM, enoxacin 0.0, 20 min, N = 3, SD
  Tacrine equivalents irreversibly bound to 1 mg microsomal protein: 0.040
P450 1A2 [6]; tacrine 0.5 μM alone, 5 min, N = 3, SD
  Tacrine equivalents irreversibly bound to 1 mg microsomal protein: 0.022 ± 0.005 nmol
P450 1A2 [6]; tacrine 0.5 μM alone, 10 min
  Tacrine equivalents irreversibly bound to 1 mg microsomal protein: 0.048 ± 0.006 nmol
P450 1A2 [6]; tacrine 0.5 μM alone, 20 min
  Tacrine equivalents irreversibly bound to 1 mg microsomal protein: 0.096 ± 0.006 nmol
P450 1A2 [6]; tacrine 0.5 μM alone, 45 min
  Tacrine equivalents irreversibly bound to 1 mg microsomal protein: 0.148 ± 0.024 nmol
